Results taken from patent US20240115744A1, “FIBRIN-BINDING COMPOUNDS FOR IMAGING AND TREATMENT” (Collagen Medical, LLC, priority 2019, published 2024).
*1 amine or outer side, *2 acyl side, *3 side chain or, on linkers, in order; H or OH if unused. Where a SMILES comes first, the peptide text is derived from it. Bridges are numbered along the chain shown (N, C = ends). [ ]: non-standard residue; d: D form. The star is where a group is joined. NODAGA = O=C(O)CN1CCN(CC(=O)O)CCN(C(CCC(=O)*)C(=O)O)CC1; Tyr(3-Cl) = N[C@@H](Cc1ccc(O)c(Cl)c1)C(=O)O; X1 = O=C([C@@H]1CC(O)CN1[*:1])[*:2]

Test: Radio-HPLC analysis of blood for identification of metabolites
Format: in vivo
Details: rat plasma 15 and 90 min after injection
Procedure: Adult male Wistar rats were anesthetized by isoflurane (1-2% in medical air). Body temperature was maintained at 37° C. using a thermo-regulated heating pad. The right femoral vein and artery were cannulated for compound injection and blood sampling, respectively. Endothelial injury was induced by crush injury to the right common carotid artery (1-2 cm proximal to the carotid bifurcation) by clamping the vessel with a hemostat for 5 minutes. Immediately following the surgical procedures, rats were placed in a micro-PET/CT scanner. Compound (200-600 μL) was injected, PET-CT images were acquired, and blood samples were drawn from the femoral artery prior to compound injection and at 2, 5, 10, 15, 30, 60, 90, 120 min post injection. Tissues were harvested at the end for ex vivo analyses.
Aliquots of the 15 and 90 min plasma samples were injected into a HPLC and fractions were collected each 30 seconds. The fractions counted were compared to pure compound injected into the same column in order to identify the number of metabolites and the fraction of intact compound circulating at each time point.

For `CC[C@H](C)[C@H](NC(=O)[C@H](Cc1ccc(O)cc1)NC(=O)[C@@H]1CSSC[C@H](NC(=O)[C@@H](CCC(=O)O)NC(=O)[C@H](Cc2ccc(O)cc2)NC(=O)CCC(C(=O)O)N2CCN(CC(=O)O)CCN(CC(=O)O)CC2)C(=O)N2CC(O)C[C@H]2C(=O)N[C@@H](Cc2ccc(O)c(Cl)c2)C(=O)NCC(=O)N[C@@H](CC(C)C)C(=O)N1)C(=O)N[C@@H](CCC(N)=O)C(N)=O` (stereo partly shown) [Compound ^68Ga-16, metal not drawn] ({NODAGA}-Y[dE]C[X1][Tyr(3-Cl)]GLCYIQ-NH2; disulfide 3-8), the “metabolites / intact compound in blood” value was “rapidly formed metabolites”.
